From US11274118B2 (priority 2012, dated 2022)
≈ marks a conversion by molar mass, not a printed value. Like-named read-outs stand apart in the source and are kept apart here.

Experiments:
[1] = male, Sprague-Dawley (SD), rat, in vivo, iv, 10 mg/kg
[2] = human plasma
[3] = system: cerebral edema in rats following bilateral cortical contusion; conditions: rat; for reduction of brain edema after 24 hours compared to untreated rats: in vivo
[4] = In vitro metabolism in human liver microsomes; conditions: human liver microsomes at 37° C., 0-60 min
physchem [5] = conditions: kinetic from dmso stock
[6] = rat plasma
Primary cortical cells = experiment: Reduction of neuronal cell death after a glutamate challenge (MTT / LDH release); type: cell-based; conditions: for inhibition at 5 µM: 24 h, read-out: reduction in cell death at a 5 μM dose; for dose at maximum efficacy: primary cortical cells; for Emax: read-out: maximum efficacy, reduction in cell death
[7] = Rat pharmacokinetic profile, i.m. injection; type: in vivo; conditions: rats
Experimental: PK Animal Methods. Rat PK studies were done in jugular cannulated male SD rats, weighing 250-300 grams. 7 was dosed i.v. and i.m.; 13 was dosed i.m. only. For i.v. dosing 7 was formulated in PEG 300/glycofurol/Tween 80/water (26/5/2/67) and dosed @ 10 mg/kg and 3.3 ml/kg. For i.m. dosing, both compounds were formulated in propylene glycol/Tween 80/50 mM Citrate, pH 5.0 (40/4/56) and dosed @10 mg/kg and 1 ml/kg into the upper leg. Blood samples (0.3 ml) were taken at 0.25, 0.50, 1, 2, 4, 6 & 8 hours in the i.m. experiments; the same time points were used for the i.v. experiment, with the addition of an early 0.08 hr (5 min) time point. Samples were collected in either Li heparin or K EDTA microtainers, centrifuged at 2000×g for 10 minutes. Plasma was then transferred to 2 ml Eppendorf tubes, frozen on dry ice and transferred to a −80° C. freezer for storage until analysis for prodrug, oxime and progesterone by LC/MS/MS, followed by pharmacokinetic analysis by WinNonlin.

physchem [8] = conditions: pH 7
physchem [9] = conditions: aqueous with cosolvent or surfactant or cyclodextrin
[10] = Exposure to rat S9 liver fractions; type: in vitro ADME; conditions: hydrochloride
[11] = buffer
[12] = system: moderate to severe TBI patients; conditions: 3 days of intravenous treatment, 100 moderate to severe TBI patients; cited from earlier work

Compound: CC(=O)[C@H]1CC[C@H]2[C@@H]3CCC4=C/C(=N/OC(=O)[C@@H](N)C(C)C)CC[C@]4(C)[C@H]3CC[C@]12C.Cl [Compound 1, (S)-1-((E)-((8S,9S,10R,13S,14S,17S)-17-Acetyl-10,13-dimethyl-7,8,9,11-tetrahydro-1H-cyclopenta[a]phenanthren-3 (2H,6H, 1 OH, 12H, 13H, 14H, 15H, 16H, 17H)-ylidene)aminooxy)-2-amino-3-methylbutan-1-one Hydrochloride]
- plasma levels of parent, free oxime and progesterone [1]: hydrolyzed rapidly to provide large concentrations of the free oxime 2 and smaller concentrations of progesterone
- conversion to progesterone [2]: neither of the test compounds were converted to progesterone
- activity in in vitro and in vivo models of brain injury TBI [3]: activity similar to that of progesterone
- reduction of brain edema after 24 hours compared to untreated rats [3]: 59%
- metabolism in human liver microsomes [4]: hydrolyzed rapidly to the free oxime 2 as well as lesser quantities of progesterone
- solubility at 90 min (physchem [5]; pH 4, aqueous buffer): 322 µM
- solubility at 90 min (physchem [5]; pH 7, aqueous buffer): 172 µM
- conversion to progesterone [6]: neither of the test compounds were converted to progesterone
- inhibition at 5 µM (Primary cortical cells): 27%
- dose at maximum efficacy (Primary cortical cells; glutamate challenge): 5 µM
- Emax (Primary cortical cells): 27%
- plasma levels of free oxime, parent prodrug and progesterone [7]: generated measurable concentrations of the corresponding oximes without evidence of either the parent prodrug or progesterone

Compound: C/C(=N\O)[C@H]1CC[C@H]2[C@@H]3CCC4=CC(=O)CC[C@]4(C)[C@H]3CC[C@]12C [Compound 3, (8S,9S,10R,13S,14S,17S)-17-((E)-1-(Hydroxyimino)ethyl)-10,13-dimethyl-6,7,8,9,10,11,12,13,14,15,16,17-dodecahydro-1H-cyclopenta[a]phenanthren-3(2H)-one]
- aqueous solubility (neutral pH): highly insoluble

Compound: C/C(=N\OC(=O)[C@@H](N)C(C)C)[C@H]1CC[C@H]2[C@@H]3CCC4=CC(=O)CC[C@]4(C)[C@H]3CC[C@]12C.Cl [Compound 7, (8S,9S,10R,13 S,14S,17S)-17-((E)-1-((S)-2-Amino-3-methylbutanoyloxyimino)ethyl)-10,13-dimethyl-6,7,8,9,10,11,12,13,14,15,16,17-dodecahydro-1H-cyclopenta[a]phenanthren-3 (2H)-one hydrochloride]
- levels of progesterone produced, compared with compound 1 [1]: superior to those generated by compound 1
- plasma levels of parent, free oxime and progesterone [1]: low levels of the parent compound 7 was observed, high levels of the relative free oxime 3, and therapeutic levels of progesterone
- conversion to progesterone [2]: neither of the test compounds were converted to progesterone
- half-life (physchem [8]; buffer): 11.4 h
- reduction of brain edema after 24 hours compared to untreated rats [3]: 56%
- solubility (physchem [9]): ≥ 60000 µM
- metabolism in rat S9 liver fractions [10]: relatively stable and no measurable quantities of progesterone were generated
- solubility at 90 min (physchem [5]; pH 4, aqueous buffer): > 645 µM
- solubility at 90 min (physchem [5]; pH 7, aqueous buffer): 146 µM
- conversion to progesterone [6]: neither of the test compounds were converted to progesterone
- inhibition at 5 µM (Primary cortical cells): 24%
- dose at maximum efficacy (Primary cortical cells; glutamate challenge): 5 µM
- Emax (Primary cortical cells): 24%
- Cmax and AUC, compared with 1 [7]: significantly higher Cmax and AUC than the relative C-3 oxime 1
- plasma levels of free oxime, parent prodrug and progesterone [7]: generated measurable concentrations of the corresponding oximes without evidence of either the parent prodrug or progesterone

Compound: C/C(=N\OC(=O)CN(C)C)[C@H]1CC[C@H]2[C@@H]3CCC4=CC(=O)CC[C@]4(C)[C@H]3CC[C@]12C [Compound 10, (8S,9S,10R,13S,14S,17S)-17-((E)-1-(2-(Dimethylamino)acetoxyimino)ethyl)-10,13-dimethyl-6,7,8,9,10,11,12,13,14,15,16,17-dodecahydro-1H-cyclopenta[a]phenanthren-3(2H)-one]
- Aqueous Stability t1/2 at pH = 7.0 [11]: 6.2 h
- solubility at 90 min (physchem [5]; pH 4, aqueous buffer): 449 µM (≈ 186 µg/mL)
- solubility at 90 min (physchem [5]; pH 7, aqueous buffer): 171 µM (≈ 70.9 µg/mL)

Compound: CC(=O)[C@H]1CC[C@H]2[C@@H]3CCC4=CC(=O)CC[C@]4(C)[C@H]3CC[C@]12C [PROG, Progesterone, reference compound]
- half-life (physchem [8]; phosphate buffer): > 240 h
- reduction of brain edema after 24 hours compared to untreated rats [3]: 62%
- Aqueous solubility at pH 7 (90 min, pH 7): <25 μM
- solubility at 90 min (physchem [5]; pH 4, aqueous buffer): < 25 µM
- solubility at 90 min (physchem [5]; pH 7, aqueous buffer): < 25 µM
- reduction of mortality [12]: over 60%
- efficacy at the 5 μM dose (Primary cortical cells; 5 μM, glutamate challenge): nearly ineffective
- inhibition at 5 µM (Primary cortical cells): 4%
- dose at maximum efficacy (Primary cortical cells; glutamate challenge): 20 µM
- Emax (Primary cortical cells): 42%
